Measurements from publication PMC10882265 (RSC Advances, 2024).
Values joined by “and” are separate entries in the source; they are usually repeats but may differ in a detail not shown here. Equal entries are not always repeated.

How the values were obtained:
murine model of T2DM = settings: oral, high fat diet + streptozotocin T2DM ref 35; cited from earlier work
human recombinant DPP-4 = human recombinant DPP-4 (Homo sapiens, UniProt P27487); assay: biochemical; settings: Inhibition of DPP-4 IC50, mean of three experiments
human recombinant DPP-4, sequence (P27487 whole entry): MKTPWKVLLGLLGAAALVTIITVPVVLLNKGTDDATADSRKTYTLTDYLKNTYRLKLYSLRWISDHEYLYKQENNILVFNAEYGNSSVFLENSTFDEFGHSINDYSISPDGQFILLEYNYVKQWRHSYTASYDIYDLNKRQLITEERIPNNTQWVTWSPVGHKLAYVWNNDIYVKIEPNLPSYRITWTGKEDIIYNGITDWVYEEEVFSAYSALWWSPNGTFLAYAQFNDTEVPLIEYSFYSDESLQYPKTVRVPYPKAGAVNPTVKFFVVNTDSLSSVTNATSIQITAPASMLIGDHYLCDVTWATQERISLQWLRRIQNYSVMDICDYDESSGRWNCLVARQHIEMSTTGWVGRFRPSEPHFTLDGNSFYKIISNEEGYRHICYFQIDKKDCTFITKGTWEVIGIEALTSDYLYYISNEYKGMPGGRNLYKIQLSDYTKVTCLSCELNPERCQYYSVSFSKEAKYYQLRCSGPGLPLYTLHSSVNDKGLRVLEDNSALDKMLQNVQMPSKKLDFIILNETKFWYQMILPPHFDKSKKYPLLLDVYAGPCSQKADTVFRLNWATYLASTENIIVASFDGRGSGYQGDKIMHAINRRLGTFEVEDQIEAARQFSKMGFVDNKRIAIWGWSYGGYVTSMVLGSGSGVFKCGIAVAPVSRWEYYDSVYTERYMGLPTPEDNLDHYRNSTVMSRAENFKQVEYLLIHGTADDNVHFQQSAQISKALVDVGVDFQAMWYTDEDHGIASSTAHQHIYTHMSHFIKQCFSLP

Structure (SMILES) | antihyperglycemic effect (murine model of T2DM) | effect on cardiac and renal dysfunction (murine model of T2DM) | IC50 (human recombinant DPP-4)
N[C@@H](CC(=O)N1CCn2c(nnc2C(F)(F)F)C1)Cc1cc(F)c(F)cc1F [Sitagliptin (1), sitagliptin] | showed antihyperglycemic effects | improved cardiac and renal dysfunction | 
NC(CC(=O)NNCc1ccc(F)c(F)c1)Cc1cc(F)c(F)cc1F (stereo not shown) [LASSBio-2127 (13), 3-amino-N'-(3,4-difluorobenzyl)-4-(2,4,5-trifluorophenyl)butanehydrazide] |  |  | 2.9 µM and 2.93 µM
N[C@H](CC(=O)N/N=C/c1ccc(F)c(F)c1)Cc1cc(F)c(F)cc1F [LASSBio-2130 (6-S), (S,E)-3-amino-N'-(3,4-difluorobenzylidene)-4-(2,4,5-trifluorophenyl)butanehydrazide] |  |  | 44.7 µM
